In ChEMBL document CHEMBL1154899, “Synthesis and biological evaluation of caffeic acid 3,4-dihydroxyphenethyl ester” (J Nat Prod, 2010):

Legend:
Type in all cases: functional
A549 = experiment: Antiproliferative activity against human A549 cells assessed as cell growth at 50 uM by SRB assay; details: read-out: Activity
SW-620 = experiment: Antiproliferative activity against human SW620 cells assessed as cell growth at 0.5 uM by SRB assay; details: read-out: Activity
A498 [1] = experiment: Antiproliferative activity against human A498 cells by SRB assay
SF-268 = experiment: Antiproliferative activity against human SF268 cells assessed as cell growth at 0.5 uM by SRB assay; details: read-out: Activity
[2] = Antiproliferative activity against human Hs 578T cells assessed as cell growth at […] by SRB assay; details: read-out: Activity
TK-10 [3] = experiment: Antiproliferative activity against human TK10 cells assessed as cell growth at 0.5 uM by SRB assay; details: read-out: Activity
MDA-MB-435 = experiment: Antiproliferative activity against human MDA-MB-435 cells assessed as cell growth at 0.5 uM by SRB assay; details: read-out: Activity
SR = experiment: Antiproliferative activity against human SR cells by SRB assay
OVCAR-8 = experiment: Antiproliferative activity against human OVCAR8 cells assessed as cell growth at 0.5 uM by SRB assay; details: read-out: Activity
NCI-H23 = experiment: Antiproliferative activity against human NCI-H23 cells by SRB assay
SN12C [4] = experiment: Antiproliferative activity against human SN12C cells assessed as cell growth at 0.5 uM by SRB assay; details: read-out: Activity
SK-OV-3 = experiment: Antiproliferative activity against human SKOV3 cells assessed as cell growth at 5 uM by SRB assay; details: read-out: Activity
OVCAR-3 = experiment: Antiproliferative activity against human OVCAR-3 cells assessed as cell growth at 500 uM by SRB assay; details: read-out: Activity
NCI-H322M = experiment: Antiproliferative activity against human NCI-H322M cells assessed as cell growth at 5 uM by SRB assay; details: read-out: Activity
[5] = Antiproliferative activity against human Hs 578T cells assessed as cell growth at 0.5 uM by SRB assay; details: read-out: Activity
A498 [6] = experiment: Antiproliferative activity against human A498 cells assessed as cell growth at […] by SRB assay; details: read-out: Activity
NCI-H522 [7] = experiment: Antiproliferative activity against human NCI-H522 cells assessed as cell growth at 5 uM by SRB assay; details: read-out: Activity
U-251 = experiment: Antiproliferative activity against human U251 cells assessed as cell growth at 50 uM by SRB assay; details: read-out: Activity
OVCAR-5 = experiment: Antiproliferative activity against human OVCAR5 cells by SRB assay
SN12C [8] = experiment: Antiproliferative activity against human SN12C cells assessed as cell growth at 500 uM by SRB assay; details: read-out: Activity
SNB-75 = experiment: Antiproliferative activity against human SNB75 cells assessed as cell growth at 500 uM by SRB assay; details: read-out: Activity
BT-549 = experiment: Antiproliferative activity against human BT549 cells assessed as cell growth at 50 uM by SRB assay; details: read-out: Activity
UACC-62 = experiment: Antiproliferative activity against human UACC62 cells assessed as cell growth at 50 uM by SRB assay; details: read-out: Activity
[9] = Antiproliferative activity against human Hs 578T cells assessed as cell growth at 5 uM by SRB assay; details: read-out: Activity
HT-29 = experiment: Antiproliferative activity against human HT-29 cells by SRB assay
[10] = Antiproliferative activity against human Hs 578T cells assessed as cell growth at 500 uM by SRB assay; details: read-out: Activity
UACC-257 [11] = experiment: Antiproliferative activity against human UACC257 cells assessed as cell growth at 5 uM by SRB assay; details: read-out: Activity
OVCAR-4 = experiment: Antiproliferative activity against human OVCAR4 cells assessed as cell growth at 5 mM by SRB assay; details: read-out: Activity
UACC-257 [12] = experiment: Antiproliferative activity against human UACC257 cells by SRB assay
KM12 = experiment: Antiproliferative activity against human KM12 cells assessed as cell growth at 0.5 uM by SRB assay; details: read-out: Activity
COLO 205 = experiment: Antiproliferative activity against human COLO205 cells assessed as cell growth at 50 uM by SRB assay; details: read-out: Activity
IGROV-1 [13] = experiment: Antiproliferative activity against human IGROV1 cells by SRB assay
NCI-H226 [14] = experiment: Antiproliferative activity against human NCI-H226 cells assessed as cell growth at 500 uM by SRB assay; details: read-out: Activity
SK-MEL-5 = experiment: Antiproliferative activity against human SK-MEL-5 cells assessed as cell growth at 500 uM by SRB assay; details: read-out: Activity
IGROV-1 [15] = experiment: Antiproliferative activity against human IGROV1 cells assessed as cell growth at 50 uM by SRB assay; details: read-out: Activity
HCT-15 = experiment: Antiproliferative activity against human HCT15 cells assessed as cell growth at 50 uM by SRB assay; details: read-out: Activity
NCI-H226 [16] = experiment: Antiproliferative activity against human NCI-H226 cells by SRB assay
LOX IMVI = experiment: Antiproliferative activity against human LOXIMVI cells by SRB assay
TK-10 [17] = experiment: Antiproliferative activity against human TK10 cells assessed as cell growth at 5 uM by SRB assay; details: read-out: Activity
NCI-H522 [18] = experiment: Antiproliferative activity against human NCI-H522 cells assessed as cell growth at 0.5 uM by SRB assay; details: read-out: Activity
[19] = read-out: LC50 (the source's name)
[20] = read-out: pLC50 (the source's name) (converted)

O=C(/C=C/c1ccc(O)c(O)c1)OCCc1ccc(O)c(O)c1
growth at 50 µM (A549): 101%
growth at 0.5 µM (SW-620): 98%
GI50 (A498 [1]; read-out: GI50): 8.05 µM
CC50 (A498 [1]; [19]): > 50 µM
TGI (A498 [1]; read-out: TGI): 36.1 µM
GI50 (A498 [1]; read-out: pGI50 (converted)): 8.13 µM
CC50 (A498 [1]; [20]): > 50.1 µM
TGI (A498 [1]; read-out: pTGI (converted)): 36.3 µM
growth at 0.5 µM (SF-268): 94%
growth [2]: 9%
growth at 0.5 µM (TK-10 [3]): 92%
growth at 0.5 µM (MDA-MB-435): 99%
GI50 (SR; read-out: GI50): 1.49 µM
CC50 (SR; [19]): > 50 µM
TGI (SR; read-out: TGI): 12.7 µM
GI50 (SR; read-out: pGI50 (converted)): 1.48 µM
CC50 (SR; [20]): > 50.1 µM
TGI (SR; read-out: pTGI (converted)): 12.6 µM
growth at 0.5 µM (OVCAR-8): 78%
GI50 (NCI-H23; read-out: GI50): 11.6 µM
CC50 (NCI-H23; [19]): > 50 µM
TGI (NCI-H23; read-out: TGI): > 50 µM
GI50 (NCI-H23; read-out: pGI50 (converted)): 11.5 µM
CC50 (NCI-H23; [20]): > 50.1 µM
TGI (NCI-H23; read-out: pTGI): > 50.1 µM
growth at 0.5 µM (SN12C [4]): 74%
growth at 5 µM (SK-OV-3): 96%
growth at 500 µM (OVCAR-3): 50%
growth at 5 µM (NCI-H322M): 92%
growth at 0.5 µM [5]: 83%
growth (A498 [6]): -11%
growth at 5 µM (NCI-H522 [7]): 89%
growth at 50 µM (U-251): 98%
GI50 (OVCAR-5; read-out: GI50): > 50 µM
CC50 (OVCAR-5; [19]): > 50 µM
TGI (OVCAR-5; read-out: TGI): > 50 µM
GI50 (OVCAR-5; read-out: pGI50 (converted)): > 50.1 µM
CC50 (OVCAR-5; [20]): > 50.1 µM
TGI (OVCAR-5; read-out: pTGI): > 50.1 µM
growth at 500 µM (SN12C [8]): 65%
growth at 500 µM (SNB-75): 58%
growth at 50 µM (BT-549): 97%
growth at 50 µM (UACC-62): 84%
growth at 5 µM [9]: 80%
GI50 (HT-29; read-out: GI50): 28.5 µM
CC50 (HT-29; [19]): > 50 µM
TGI (HT-29; read-out: TGI): > 50 µM
GI50 (HT-29; read-out: pGI50 (converted)): 28.2 µM
CC50 (HT-29; [20]): > 50.1 µM
TGI (HT-29; read-out: pTGI): > 50.1 µM
growth at 500 µM [10]: 67%
growth at 5 µM (UACC-257 [11]): 92%
growth at 5000 µM (OVCAR-4): 21%
GI50 (UACC-257 [12]; read-out: GI50): 15.4 µM
CC50 (UACC-257 [12]; [19]): > 50 µM
TGI (UACC-257 [12]; read-out: TGI): > 50 µM
GI50 (UACC-257 [12]; read-out: pGI50 (converted)): 15.5 µM
CC50 (UACC-257 [12]; [20]): > 50.1 µM
TGI (UACC-257 [12]; read-out: pTGI): > 50.1 µM
growth at 0.5 µM (KM12): 97%
growth at 50 µM (COLO 205): 89%
GI50 (IGROV-1 [13]; read-out: GI50): 2.86 µM
CC50 (IGROV-1 [13]; [19]): > 50 µM
TGI (IGROV-1 [13]; read-out: TGI): 24.4 µM
GI50 (IGROV-1 [13]; read-out: pGI50 (converted)): 2.88 µM
CC50 (IGROV-1 [13]; [20]): > 50.1 µM
TGI (IGROV-1 [13]; read-out: pTGI (converted)): 15.5 µM
growth at 500 µM (NCI-H226 [14]): 79%
growth at 500 µM (SK-MEL-5): 64%
growth at 50 µM (IGROV-1 [15]): 98%
growth at 50 µM (HCT-15): 78%
GI50 (NCI-H226 [16]; read-out: GI50): 13.3 µM
CC50 (NCI-H226 [16]; [19]): > 50 µM
TGI (NCI-H226 [16]; read-out: TGI): > 50 µM
GI50 (NCI-H226 [16]; read-out: pGI50 (converted)): 13.5 µM
CC50 (NCI-H226 [16]; [20]): > 50.1 µM
TGI (NCI-H226 [16]; read-out: pTGI): > 50.1 µM
GI50 (LOX IMVI; read-out: GI50): 6.38 µM
CC50 (LOX IMVI; [19]): > 50 µM
TGI (LOX IMVI; read-out: TGI): 35.1 µM
GI50 (LOX IMVI; read-out: pGI50 (converted)): 6.31 µM
CC50 (LOX IMVI; [20]): > 50.1 µM
TGI (LOX IMVI; read-out: pTGI (converted)): 35.5 µM
growth at 5 µM (TK-10 [17]): 95%
growth at 0.5 µM (NCI-H522 [18]): 74%
